From article PMC11784013, “Potassium molybdate blocks APN-dependent coronavirus entry by degrading receptor via PIK3C3-mediated autophagy” (Journal of Virology, 2024)

Legend:
APN = experiment: Pathway inhibitor screen on PM-induced APN degradation in ST cells (western blot); assay type: cell-based, porcine; details: PM 10 mM, 16 h, 3-MA 20 mM
Method: Fig 6 PM degrades APN by autophagy-lysosome pathway. (A) ST cells were treated with PM (10 mM) and infected with TGEV (0.1 MOI) in the presence and absence of MG132 (20 µM), 3-MA (20 mM), and Z-VAD-FMK (20 µM) for 16 h. The APN expression and TGEV N were detected by western blot. (B) ST cells were treated with PM (10 mM) at 2, 4, 8, and 16 h, autophagy markers P62 and LC3, and APN were measured by western blot. (C) ST cells were transfected with RFP-EGFP-LC3B for 12 h and then treated with PM (10 mM) or H2O for 36 h. The fluorescence of GFP and RFP was detected by confocal microscopy, scale bar: 5 µm. (D) Quantification of autophagosomes (Merge) and autolysosomes (RFP) from C using Image J software. (E) ST cells were treated with PM or H2O for 24 h. The autophagosomes (yellow arrow) and autolysosomes (asterisk) were detected by transmission electron microscope, scale bar: 2 µm. (F) The number of autophagosomes (yellow arrow) and autolysosomes (asterisk) was quantified. All western blot results were calculated by Image J. Results are presented as mean ± SD of data from three independent experiments. ***, P ≤ 0.001.
Fig 7 PM degrades APN expression via activating PIK3C3-mediated autophagy. (A) Graphical representation for autophagy and the targets of different autophagy inhibitors. (B) ST cells were treated with PM (10 mM) in the presence and absence of 3-MA (20 mM), SBI0206965 (20 µM), and 3BDO (30 µM) for 16 h, and the APN expression was detected by western blot. (C) ST cells were treated with PM (10 mM) in the presence and absence of 3-MA (20 mM) for 16 h, and the APN, PIK3C3, ATG14, BECN1, P62, and LC3 were measured by western blot. (D) ST cells were transfected with PIK3C3 siRNA-1, PIK3C3 siRNA-2, PIK3C3 siRNA-3, PIK3C3 siRNA-4, and NC siRNA for 24 h, the PIK3C3 expression was detected by western blot. (E) ST cells were transfected with PIK3C3 siRNA-4 or NC siRNA for 24 h and then treated with PM (10 mM) for 16 h. The APN, PIK3C3, ATG14, BECN1, P62, and LC3 were detected by western blot. (F) Sequencing diagram for WT ST cells and PIK3C3 KO ST cells. (G) PIK3C3 was detected by western blot in WT ST cells and PIK3C3 KO ST cells. (H) WT ST cells and PIK3C3 KO ST cells were treated with PM (10 mM) for 16 h and then the APN, PIK3C3, ATG14, BECN1, P62, and LC3 were detected by western blot. (I) WT ST cells and PIK3C3 KO ST cells were transfected with pCMV-Myc and pCMV-Myc-PIK3C3, respectively, for 24 h and treated with PM (10 mM) for 16 h. The APN, PIK3C3, P62, and LC3 were detected by western blot. All western blot results were calculated by Image J. All experiments were performed in triplicate.

TGEV Miller = experiment: TGEV infection of ST cells (RT-qPCR, TCID50, western blot, IFA); assay type: cell-based, transmissible gastroenteritis virus; details: TGEV Miller 0.1 MOI, indicated concentrations, 1 h pretreatment and 17 h
Method: Fig 1 PM inhibits TGEV and PRCV infection in ST cells. (A) A cytotoxicity assay of PM in ST cells. ST cells cultured in a 96-well plate were incubated with different concentrations of PM for 24 h, which was tested by Cell Counting Kit 8. (B) Time course for PM inhibiting TGEV or PRCV or PEDV infection assay. (C–F) The ST cells, pretreated with PM at the indicated concentrations for 1 h were infected with TGEV Miller (0.1 MOI) or PRCV (0.1 MOI) for 1 h and were again treated with PM at 37°C for 17 h. The cell samples were collected and examined by real-time quantitative PCR (RT-qPCR), TCID50, western blot (C and D), and immunofluorescence assay (IFA) (E and F), scale bar: 50 µm. (G) Vero-E6 cells were treated with indicated PM and infected with PEDV LJX 01/2014 according to the time course of Fig. 1B, which was detected by TCID50 and western blot. Results are presented as mean ± SD of data from three independent experiments. ns, no significant; **, P ≤ 0.01; ***, P ≤ 0.001.
Fig 3 PM inhibits TGEV and PRCV infection by potassium ion and molybdate synergy. […] The cell samples were measured by RT-qPCR. (C and D) ST cells were treated with PM (K2MoO4, 10 mM), KCl (20 mM), Na2MoO4 (10 mM), sodium chloride (NaCl, 10 mM), K2MoO4 (10 mM), and NaCl (20 mM) as well as Na2MoO4 (10 mM) and KCl (20 mM) for 1 h and then infected with TGEV Miller (0.1 MOI) or PRCV (0.1 MOI) for 17 h, which was determined by RT-qPCR and TCID50. […]
Total RNA was extracted using RNAiso reagent (TaKaRa, Japan, 9109) and reverse transcribed into cDNA using HiScript Q RT SuperMix for qPCR (Vazyme, China, R223-01), both of which followed the manufacturer’s recommendations. The TGEV and PRCV virus copy numbers were detected by the TaqMan probe-based RT-qPCR method developed previously in our laboratory ([59]). Relative qPCR was also performed using ChamQ SYBR qPCR master mix (Vazyme, China, Q311-02), and the results were calculated via the 2^-ΔΔCT method.

[1] = no virus, SBI0206965 20 µM, 3BDO 30 µM

O=C1OC(COc2ccccc2[N+](=O)[O-])CC1Cc1ccccc1 (stereo not drawn) [3BDO]
reversal of PM-induced APN degradation (APN; [1]): cannot abolish the degradation of APN

Cn1cnc(N)c2ncnc1-2 [3-MA, 3-Methyladenine]
reversal of PM-induced APN degradation (APN; [1]): reversed the changes in APN expression
reversal of PM-induced APN degradation (APN; TGEV 0.1 MOI, MG132 20 µM, Z-VAD-FMK 20 µM): reversed

CNC(=O)c1ccccc1Oc1nc(Nc2cc(OC)c(OC)c(OC)c2)ncc1Br [SBI0206965]
reversal of PM-induced APN degradation (APN; [1]): cannot abolish the degradation of APN

[Na+].[Na+].[O]=[Mo](=[O])([O-])[O-] [sodium molybdate]
TGEV infection, single salt (TGEV Miller): neither potassium chloride nor sodium molybdate was able to suppress TGEV infection

[Cl-].[K+] [potassium chloride]
TGEV infection, single salt (TGEV Miller): neither potassium chloride nor sodium molybdate was able to suppress TGEV infection
